Where a name gives a salt, the structure may show the parent alone. Read-outs that look alike come from different tables or passages of the source.

The results in this text go back to paper PMC8428568, “Discovery of re-purposed drugs that slow SARS-CoV-2 replication in human cells” (PLoS Pathogens, 2021).

Data set [1] deals with SARS-CoV-2-ΔOrf7a-NLuc virus. The experiment in a line: microbe, parasite or virus in culture. In kind it is cell-based. The conditions noted are these: for activity at 10 µM: Severe acute respiratory syndrome coronavirus 2, Vero, 72 h, read-out: Mean relative luminescence (n=4); for IC50: Severe acute respiratory syndrome coronavirus 2.
In data set [2] the test system is SARS-CoV-2-ΔOrf7a-NLuc virus. The data set is described as follows: microbe, parasite or virus in culture. In kind it is cell-based. Conditions: for Mean relative luminescence (n=4): HUH7 screen; for IC50: read-out: HUH7 IC50.
Data set [3] has as its system SARS-CoV-2-ΔOrf7a-NLuc virus. The data set is described as follows: Post-infection treatment: Vero cells infected 24 hrs with SARS-CoV-2-ΔOrf7a-NLuc, then compound for 48 hrs, bioluminescence. In kind it is cell-based. Conditions: for Post-infection at IC50: change in replication relative to DMSO, cells infected 24 hrs, then treated 48 hrs.
The test system of data set [4] is recombinant NLuc. The class given is biochemical. The conditions noted are these: for Relative Recombinant NLUC: recombinant NLuc activity relative to DMSO; for Reads Counts per second (read 1) / Reads Counts per second (read 4) / Reads Counts per second (read 3) / Reads Counts per second (read 2): recombinant NLuc; for Reads Counts per second (read 1): first read column; for Reads Counts per second (read 4): fourth read column; for Reads Counts per second (read 3): third read column.

Data set [5] relates to Vero cells.
Data set [6] deals with HUH7 cells. The conditions noted are these: HUH7 screen.
[7] abbreviates: 1 = untreated, 0 = total inhibition.
Where [8] appears, read: Vero screen, relative luminescence.
Setting [9] is: Severe acute respiratory syndrome coronavirus 2, Huh-7.
[10] abbreviates: Vero cells, 10 μM, 1 = DMSO-treated infected cells.

With `Cc1[nH]c2ccccc2c1CCNCc1ccc(/C=C/C(=O)NO)cc1` [Panobinostat], the “% activity in Vero 100PFU screen” value in data set [1] is listed as 3.68%. Also, the activity at 10 µM in data set [1] (setting [7]) is 1.87%. Also, the IC50 in data set [1] (Vero cells) was below 0.2 µM; in data set [2] (setting [9]) it was below 200 nM. The figures for the “Mean relative luminescence (n=4)” value in data set [1] (setting [8]) and in data set [2] were 0.01867 and 0.05897, respectively. Besides, in data set [2], the “effect on virus replication” value is “completely blocked replication of SARS-CoV-2 at all doses tested”. Besides, the “effect on replication in cells already infected” value in data set [3] (Vero cells infected 24 hrs then treated 48 hrs) is listed as “a more modest effect on replication”. Besides, the “Post-infection at IC50” value in data set [3] was -25%. Besides, the “Relative Recombinant NLUC” value in data set [4] was determined as 0.8963. For the same molecule, in data set [4], the “Reads Counts per second (read 1)” value amounted to 330994 Counts per second. The “Reads Counts per second (read 4)” value in data set [4] is 341728 Counts per second. For the same molecule, in data set [4], the “Reads Counts per second (read 3)” value is 343634 Counts per second. Further, the PrestoBlue relative viability was 0.6021 in data set [5] (setting [10]), 0.6021 in data set [5] (Vero screen) and 0.753 in data set [6].

`CCN(CC)Cc1cc(Nc2ccnc3cc(Cl)ccc23)ccc1O` [Amodiaquine, Amodiaquine dihydrochloride dihydrate]: in data set [1], the “% activity in Vero 100PFU screen” value is reported as 12%. Further, the activity at 10 µM in data set [1] (setting [7]) is 10.1%. For the same molecule, the IC50 in data set [1] (Vero cells) amounted to 5 µM; in data set [2] (setting [9]), 1000 nM. In addition, the entries for the “Mean relative luminescence (n=4)” value in data set [1] (setting [8]) and in data set [2] were 0.1007 and 0.01258, respectively. For the same molecule, the “Post-infection at IC50” value in data set [3] is reported as -25%. For the same molecule, the “Relative Recombinant NLUC” value in data set [4] amounted to 0.9146. The “Reads Counts per second (read 1)” value in data set [4] is listed as 351271 Counts per second. Further, the “Reads Counts per second (read 4)” value in data set [4] is recorded as 339282 Counts per second. For the same molecule, the “Reads Counts per second (read 2)” value in data set [4] was determined as 347518 Counts per second. The “Reads Counts per second (read 3)” value in data set [4] is 344113 Counts per second. The PrestoBlue relative viability in data set [5] (setting [10]) was found to be 0.6404; in data set [5] (Vero screen) it was 0.6404; in data set [6], 0.7783.

As for `COC(=O)C1=C(C)NC(C)=C(C(=O)OCCN2CCN(C(c3ccccc3)c3ccccc3)CC2)C1c1cccc([N+](=O)[O-])c1` (stereo not shown) [Manidipine], the “% activity in Vero 100PFU screen” value in data set [1] is on record as 12%. Further, the activity at 10 µM in data set [1] (setting [7]) was 10.9%. Moreover, the IC50 stood at 7.5 µM in data set [1] (Vero cells) and 2000 nM in data set [2] (setting [9]). In addition, the “Mean relative luminescence (n=4)” value in data set [1] (setting [8]) was 0.1086; in data set [2], 0.1. Besides, the “Post-infection at IC50” value in data set [3] is on record as -50%. Further, the “Relative Recombinant NLUC” value in data set [4] stood at 0.6615. The “Reads Counts per second (read 1)” value in data set [4] is recorded as 249924 Counts per second. Besides, the “Reads Counts per second (read 4)” value in data set [4] is 251205 Counts per second. Moreover, in data set [4], the “Reads Counts per second (read 3)” value came out at 250350 Counts per second. The PrestoBlue relative viability in data set [5] (setting [10]) was determined as 1.036; in data set [5] (Vero screen), 1.036; in data set [6], 0.5396.

`CCN1CCN(Cc2ccc(Nc3ncc(F)c(-c4cc(F)c5nc(C)n(C(C)C)c5c4)n3)nc2)CC1` [LY2835219]: in data set [1], the “% activity in Vero 100PFU screen” value is 3.32%. In addition, the activity at 10 µM in data set [1] (setting [7]) amounted to 2.68%. Further, the IC50 came out at 1 µM in data set [1] (Vero cells) and 200 nM in data set [2] (setting [9]). For the same molecule, the “Mean relative luminescence (n=4)” value in data set [1] (setting [8]) was determined as 0.02684; in data set [2], 0.07242. Besides, the “Post-infection at IC50” value in data set [3] is -40%. The “Relative Recombinant NLUC” value in data set [4] turned out to be 0.9189. In data set [4], the “Reads Counts per second (read 1)” value is recorded as 345999 Counts per second. The “Reads Counts per second (read 4)” value in data set [4] worked out at 348685 Counts per second. Further, the “Reads Counts per second (read 3)” value in data set [4] turned out to be 345910 Counts per second. Also, the PrestoBlue relative viability in data set [5] (setting [10]) was determined as 0.5512; in data set [5] (Vero screen), 0.5512; in data set [6], 0.6043.

Turning to `COC(=O)C1=C(C)NC(C)=C(C(=O)OCCN2CCN(C(c3ccccc3)c3ccccc3)CC2)C1c1cccc([N+](=O)[O-])c1.Cl.Cl` (stereo not shown) [Manidipine 2HCl], the “% activity in Vero 100PFU screen” value in data set [1] came to 12%. Further, the “Mean relative luminescence (n=4)” value in data set [1] (setting [8]) was determined as 0.1096. For the same molecule, the “Mean relative luminescence (n=4)” value in data set [1] (setting [7]) turned out to be 0.1096. In addition, in data set [2], the “Mean relative luminescence (n=4)” value was 0.04447 and the IC50 is 2500 nM. In data set [3], the “Post-infection at IC50” value was -50%. Also, in data set [4], the “Relative Recombinant NLUC” value is on record as 0.6382, the “Reads Counts per second (read 1)” value is listed as 242466 Counts per second, the “Reads Counts per second (read 4)” value came out at 239469 Counts per second and the “Reads Counts per second (read 3)” value is listed as 242968 Counts per second. This molecule also showed a PrestoBlue relative viability in data set [5] (setting [10]) of 0.813. The PrestoBlue relative viability in data set [5] (Vero screen) was 0.813. In data set [6], this molecule displayed a PrestoBlue relative viability of 0.5726.

Regarding `C=C1CC[C@H](O)C/C1=C/C=C1\CCC[C@]2(C)[C@@H]([C@H](C)CCCC(C)C)CC[C@@H]12` [Vitamin D3], the “% activity in Vero 100PFU screen” value in data set [1] is 12%. In addition, in data set [1] (setting [7]), the activity at 10 µM was 9.68%. This molecule also showed an IC50 in data set [1] (Vero cells) of 10 µM. The “reduction of virus replication” value in data set [1] (Vero cells, 100PFU screen, 10 μM) was at least 85%. In addition, the “Mean relative luminescence (n=4)” value in data set [1] (setting [8]) stood at 0.09678. In data set [2], the “suppression of SARS-CoV-2 replication” value was at least 85% and the “Mean relative luminescence (n=4)” value worked out at 0.02567. In data set [2] (setting [9]), the 50% inhibitory concentration (IC50) is 3000 nM. The “Post-infection at IC50” value in data set [3] was -30%. In data set [4], the “Relative Recombinant NLUC” value turned out to be 0.9682, the “Reads Counts per second (read 1)” value was 370629 Counts per second, the “Reads Counts per second (read 4)” value was 364312 Counts per second and the “Reads Counts per second (read 3)” value came out at 360711 Counts per second. The PrestoBlue relative viability in data set [5] (setting [10]) came out at 1.049. The same molecule had a PrestoBlue relative viability in data set [5] (Vero screen) of 1.049. In addition, the PrestoBlue relative viability in data set [6] came to 0.6418.

As to `O=C1C(O)=C([C@H]2CC[C@H](c3ccc(Cl)cc3)CC2)C(=O)c2ccccc21` [Atovaquone], the “% activity in Vero 100PFU screen” value in data set [1] was 4%. In data set [1] (setting [7]), the activity at 10 µM was 0.959%. Besides, the concentration for half-maximal inhibition (IC50) worked out at 3 µM in data set [1] (Vero cells) and 7500 nM in data set [2] (setting [9]). The “Mean relative luminescence (n=4)” value was 0.009591 in data set [1] (setting [8]) and 0.05824 in data set [2]. In data set [3], the “Post-infection at IC50” value is given as -25%. Further, the “Relative Recombinant NLUC” value in data set [4] was found to be 0.5902. Further, the “Reads Counts per second (read 1)” value in data set [4] worked out at 224278 Counts per second. In data set [4], the “Reads Counts per second (read 4)” value is recorded as 216287 Counts per second. The “Reads Counts per second (read 2)” value in data set [4] is 226697 Counts per second. Also, the “Reads Counts per second (read 3)” value in data set [4] came to 224646 Counts per second. The PrestoBlue relative viability amounted to 1.55 in data set [5] (setting [10]), 1.55 in data set [5] (Vero screen) and 1.15 in data set [6].
